Results from publication PMC8876412 (Viruses, 2022).
Entries after “also recorded” stand apart in the source; their conditions may differ.

Legend:
[1] = tested on: Western Equine Encephalitis Virus (WEEV); conditions: cultured human neuronal cells; cited from earlier work
CMV TB40 [2] = test: microbe, parasite or virus in culture; type: cell-based, human cytomegalovirus; conditions: Human betaherpesvirus 5, 168 h, read-out: EC50 TB40
[3] = MTT toxicity assay in non-infected cells; type: cell-based; conditions: human, non-infected HFF cells, non-infected HFFs
CMV TB40 (US17 DNA) = test: Viral DNA in cells and supernatants by US17 real-time PCR; type: cell-based, human cytomegalovirus; conditions: for cellular viral loads (viral DNA replication in cells): 72, 96, 120 h
CMV TB40 [4] = tested on: CMV TB40; design: method as in ref 24 = [24]; conditions: cited from earlier work
MCMV Smith strain [5] = tested on: MCMV Smith strain; design: method as in ref 24 = [24]; conditions: cited from earlier work
HSV1 [6] = tested on: HSV1; design: method as in ref 24 = [24]; conditions: cited from earlier work
HSV2 [7] = tested on: HSV2; design: method as in ref 24 = [24]; conditions: cited from earlier work
[8] = tested on: pp28-luciferase recombinant Towne CMV; test: microbe, parasite or virus in culture; conditions: Human betaherpesvirus 5, read-out: EC50 pp28-Luciferase
MCMV Smith strain [9] = test: microbe, parasite or virus in culture; type: cell-based; conditions: Mouse cytomegalovirus, Fibroblast, read-out: EC50 MCMV
CMV TB40 [10] = test: Virus yield: supernatants of TB40-infected HFFs titered by plaque assay; type: cell-based, human cytomegalovirus; conditions: supernatants at 72, 96, 120 h; for reduction in viral titer (virus yield) of supernatants: 3 µM
[11] = tested on: pp28-luciferase recombinant Towne CMV; conditions: CC50 in non-infected HFFs versus anti-CMV EC50
HSV1 [12] = test: HSV1 plaque assay in Vero cells; type: cell-based, Human Herpesvirus 1; conditions: 5 µM, positive control
HSV2 [13] = test: HSV2 plaque assay in Vero cells; type: cell-based, Human Herpesvirus 2; conditions: 5 µM, positive control
CMV = tested on: CMV; design: method as in ref 23 = [23]; conditions: cited from earlier work

In the case of `O=C(NCCc1ccncc1)C1CCN(C(=O)c2cc3ccccc3n2Cc2ccc(Cl)cc2)CC1` [CCG205432], the “inhibition of infectious virus” value [1] is listed as “inhibited the infectious virus”.

With `CC(C)NC(=O)C1CCN(C(=O)c2cc3sccc3n2Cc2ccc(Cl)cc2)CC1` [Compound 1] the EC50 (CMV TB40 [2]) was 1.99 ± 0.15 µM, the CC50 at 72 h [3] was over 200 µM and the “cellular viral loads (viral DNA replication in cells)” value (“cellular viral loads” below) (CMV TB40 (US17 DNA); 3 µM) was “did not reduce”. The “in vitro activity against TB40” value (CMV TB40 [4]) was “low µM concentrations”, the “in vitro activity against mouse CMV” value (MCMV Smith strain [5]) was “low µM concentrations” and the “activity against HSV1” value (HSV1 [6]) was “no activity”. The “activity against HSV2” value (HSV2 [7]) was “no activity” and the EC50 [8] was 1.7 ± 0.6 µM.

Work on `CC(C)NC(=O)C1CCCN(C(=O)c2cc3sccc3n2Cc2ccc(Cl)cc2)C1` (centres unmarked) [Compound 2] yielded an EC50 [8] of over 30 µM.

`CC(C)NC(=O)C1CCN(C(=O)c2cc3ccccc3n2Cc2ccc(Cl)cc2)CC1` [Compound 3] gave an EC50 [8] of over 30 µM.

`CC(C)NC(=O)C1CCN(C(=O)c2cccn2Cc2ccc(Cl)cc2)CC1` [Compound 4] showed an EC50 [8] of over 30 µM.

Molecule `O=C(NCCc1ccccn1)C1CCN(C(=O)c2cccn2Cc2ccc(Cl)cc2)CC1` [Compound 5] has an EC50 [8] of over 30 µM.

Molecule `O=C(NCCc1cccnc1)C1CCN(C(=O)c2cccn2Cc2ccc(Cl)cc2)CC1` [Compound 6] has an EC50 [8] of over 30 µM.

Molecule `O=C(NCCc1ccncc1)C1CCN(C(=O)c2cccn2Cc2ccc(Cl)cc2)CC1` [Compound 7] has an EC50 (CMV TB40 [2]) of 0.55 ± 0.06 µM, a CC50 at 72 h [3] of over 500 µM and an EC50 (MCMV Smith strain [9]) of 0.6 ± 0.34 µM. For the same molecule, the “reduction in viral titer (virus yield) of supernatants” value (CMV TB40 [10]) was “reduced virus yield at all late time points; also recorded: higher than with 1 and overall similar to GCV”, the “viral loads in supernatants” value (CMV TB40 (US17 DNA); 3 µM, 72, 96, 120 hpi) was “decreased the viral loads in supernatants at all time points” and the “cellular viral loads” value (CMV TB40 (US17 DNA); 3 µM) was “did not reduce”. For the same molecule, the selectivity index [11] was over 1500 and the EC50 [8] was 0.21 ± 0.06 µM.

`O=C(NCCc1ccncc1)C1CCN(C(=O)c2cc3ccccc3n2Cc2ccc(Cl)cc2)CC1` [Compound 8] showed an EC50 (CMV TB40 [2]) of 0.42 ± 0.07 µM, a CC50 at 72 h [3] of over 500 µM and an EC50 (MCMV Smith strain [9]) of 0.73 ± 0.32 µM. The “reduction in viral titer (virus yield) of supernatants” value (CMV TB40 [10]) was “higher than with 1 and overall similar to GCV”, the “viral loads in supernatants” value (CMV TB40 (US17 DNA); 3 µM, 72, 96, 120 hpi) was “decreased viral loads at 120 hpi” and the “cellular viral loads” value (CMV TB40 (US17 DNA); 3 µM) was “did not reduce”. For the same molecule, the selectivity index [11] was over 1500 and the EC50 [8] was 0.28 ± 0.06 µM.

Molecule `O=C(NCCc1ccncc1)C1CCN(C(=O)c2cc3sccc3n2Cc2ccc(Cl)cc2)CC1` [Compound 9] has an EC50 (CMV TB40 [2]) of 0.35 ± 0.07 µM, a CC50 at 72 h [3] of over 500 µM and a selectivity index [11] of over 1500. It also gave an EC50 [8] of 0.3 ± 0.05 µM.

`O=C(NCc1ccccn1)C1CCN(C(=O)c2cccn2Cc2ccc(Cl)cc2)CC1` [Compound 10] gave an EC50 [8] of over 30 µM.

`O=C(NCc1cccnc1)C1CCN(C(=O)c2cccn2Cc2ccc(Cl)cc2)CC1` [Compound 11] showed an EC50 [8] of over 30 µM.

`O=C(NCc1ccncc1)C1CCN(C(=O)c2cccn2Cc2ccc(Cl)cc2)CC1` [Compound 12] showed an EC50 [8] of over 30 µM.

Work on `O=C(O)C1CCN(C(=O)c2cccn2Cc2ccc(Cl)cc2)CC1` [Compound 13] yielded an EC50 [8] of over 30 µM.

For `CCOC(=O)C1CCN(C(=O)c2cccn2Cc2ccc(Cl)cc2)CC1` [Compound 14], the EC50 [8] was over 30 µM.

In the case of `Nc1nc(O)c2ncn(COC(CO)CO)c2n1` [GCV, ganciclovir, reference compound], the “inhibition of HSV1” value (HSV1 [12]) is reported as “complete inhibition”, the “inhibition of HSV2” value (HSV2 [13]) is reported as “complete inhibition” and the “viral DNA in supernatants” value (CMV TB40 (US17 DNA); 5 µM) is reported as “reduced DNA replication”. For the same molecule, the “viral DNA replication in cells” value (CMV TB40 (US17 DNA); 5 µM) was “reduced DNA replication”.

For `COc1cccc(N2CCN(C3=Nc4c(F)cccc4[C@H](CC(=O)O)N3c3cc(C(F)(F)F)ccc3OC)CC2)c1` [Letermovir, reference compound], the “reduction in viral progeny of supernatants” value (CMV TB40 [10]; 10 nM) was “strongest reduction in viral progeny at all time points” and the “viral loads in supernatants” value (CMV TB40 (US17 DNA); 10 nM) was “reduced viral loads in supernatants”.

For `CC(C)Nc1nc2cc(Cl)c(Cl)cc2n1[C@H]1O[C@@H](CO)[C@H](O)[C@@H]1O` [maribavir, Maribavir], the response (CMV; across all doses) is listed as ~ 65% and the CMV recurrences (CMV; of the participants) is listed as 35%.
